Data as given in US20040122089A1, “Novel eicosanoid analgesics” (priority 2001, published 2004).
Where two headings read alike, the source gives them in different places.

Experiments:
[1] = target: T1, FAAH (Rattus norvegicus, UniProt P97612); assay: Fatty acid amide hydrolase assay, rat brain membranes; type: biochemical
T1 construct: membranes prepared from frozen brains of CD rats (Charles River, France); from tissue; host or cells: brain membranes of CD rats
T1 sequence (P97612 1-579): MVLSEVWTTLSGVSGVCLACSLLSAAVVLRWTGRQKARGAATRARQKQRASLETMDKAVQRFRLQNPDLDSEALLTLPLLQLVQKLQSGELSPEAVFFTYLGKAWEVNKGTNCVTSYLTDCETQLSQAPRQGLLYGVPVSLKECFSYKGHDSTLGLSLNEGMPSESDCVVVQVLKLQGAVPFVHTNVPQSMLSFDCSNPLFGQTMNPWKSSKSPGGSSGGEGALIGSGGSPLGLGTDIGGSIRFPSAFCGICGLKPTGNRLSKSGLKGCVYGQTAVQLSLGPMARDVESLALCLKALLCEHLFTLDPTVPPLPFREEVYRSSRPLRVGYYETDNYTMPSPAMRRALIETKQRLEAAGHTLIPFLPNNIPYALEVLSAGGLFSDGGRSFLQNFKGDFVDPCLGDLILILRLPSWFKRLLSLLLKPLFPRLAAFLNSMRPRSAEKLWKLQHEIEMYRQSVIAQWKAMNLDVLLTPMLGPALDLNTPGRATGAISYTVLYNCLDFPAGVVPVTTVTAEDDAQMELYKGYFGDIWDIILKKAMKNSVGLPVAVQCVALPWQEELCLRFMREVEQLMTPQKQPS
Protocol: Fatty acid amide hydrolase assay—The effect of compounds on the enzymatic hydrolysis of AEA was studied using membranes prepared from frozen brains of CD rats (Charles River, France), incubated with the test compounds and [^14C] AEA (9 μM) in 50 mM Tris-HCl, pH 9, for 30 min at 37° C. [^14C] Ethanolamine produced from [^14C] AEA hydrolysis was measured by scintillation counting of the aqueous phase after extraction of the incubation mixture with 2 volumes of CHCl3/CH3OH 2:1 (by vol.).
(§1) CP55940 from whole rat brain membranes.

[2] = system: AMT; type: cell-based, rat; details: [14C]AEA uptake, RBL-2H3 cells; read-out: AEA transport (IC50)
Protocol: AEA. Cells were incubated with [^14C] AEA for 5 min at 37° C., in the presence or absence of varying concentrations of the inhibitors. Residual [^14C] AEA in the incubation media after extraction with CHCl3/CH3OH 2:1 (by vol.), determined by scintillation counting of the lyophilized organic phase, was used as a measure of the AEA that was taken up by cells.
as §1

[3] = target: T2, CB1 receptors (Rattus norvegicus, UniProt P20272); assay: Agonist-stimulated [35S]GTPγS binding, rat hippocampal membranes; details: for Emax: read-out: GTPγS binding (Emax)
T2 sequence (P20272 whole entry): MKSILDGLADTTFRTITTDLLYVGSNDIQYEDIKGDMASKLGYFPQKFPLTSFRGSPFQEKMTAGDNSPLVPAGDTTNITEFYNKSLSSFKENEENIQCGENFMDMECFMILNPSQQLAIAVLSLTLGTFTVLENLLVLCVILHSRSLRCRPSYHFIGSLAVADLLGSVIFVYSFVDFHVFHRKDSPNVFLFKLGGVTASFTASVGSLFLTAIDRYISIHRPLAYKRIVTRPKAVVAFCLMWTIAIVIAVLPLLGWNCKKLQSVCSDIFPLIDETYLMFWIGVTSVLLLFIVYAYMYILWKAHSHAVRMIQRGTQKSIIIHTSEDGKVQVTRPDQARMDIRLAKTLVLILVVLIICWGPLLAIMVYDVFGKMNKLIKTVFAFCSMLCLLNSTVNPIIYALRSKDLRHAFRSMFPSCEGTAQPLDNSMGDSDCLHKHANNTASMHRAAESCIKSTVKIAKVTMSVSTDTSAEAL

[4] = target: T2, CB1 receptors; assay: CB1 receptor binding, [3H]CP55940, whole rat brain membranes (Example 3)
[5] = system: mice; assay: Mouse tetrad of behavioral tests, i.v. (Example 3); type: in vivo; details: for Average ED50 / R.I. ED50 / Rectal temp. ED50 / Spontan. activity ED50 / Tail Flick ED50: i.v.; for R.I. ED50 / Rectal temp. ED50 / Spontan. activity ED50 / Tail Flick ED50: mean (range)
Protocol: (§2) The analogs were administered to mice by tail-vein injection and evaluated for their ability to produce hypomotility, hypothermia, and antinociception. These pharmacological measures were determined in the same mouse at a time when maximal activity was present. […] A 10-sec maximum latency was used. Antinociception was expressed as % MPE as described below.
Data Analysis—For production of hypomotility and hypothermia, the data were expressed as a percentage of control activity and change in temperature, respectively. Antinociception was calculated according to the following equation.
% MPE=−((test latency-control latency)/(10s-control latency))×100
At least six animals were treated with each dose-response relationships could be determined for each analog. ED50 values were determined from least-squares unweighted linear regression analysis of log dose-response plots.
The ED50 (milligrams per kilogram, i.v.) does for inhibition of sector crossings (spontaneous activity) in an open field, antinociception (delay in seconds in the tail-flick response), decrease of rectal temperature in degrees Celsius, and induction of time spent in immobility on a ring are shown. Data are means (and ranges) of N>six animals.

[6] = target: human VR1 receptor (Homo sapiens, UniProt Q8NER1); assay: Cytosolic calcium concentration assay in HEK-hVR1 cells (Example 3); details: for Emax: read-out: hVR1 efficacy (maximal effect, in parentheses)
Sequence of human VR1 receptor (Q8NER1 whole entry): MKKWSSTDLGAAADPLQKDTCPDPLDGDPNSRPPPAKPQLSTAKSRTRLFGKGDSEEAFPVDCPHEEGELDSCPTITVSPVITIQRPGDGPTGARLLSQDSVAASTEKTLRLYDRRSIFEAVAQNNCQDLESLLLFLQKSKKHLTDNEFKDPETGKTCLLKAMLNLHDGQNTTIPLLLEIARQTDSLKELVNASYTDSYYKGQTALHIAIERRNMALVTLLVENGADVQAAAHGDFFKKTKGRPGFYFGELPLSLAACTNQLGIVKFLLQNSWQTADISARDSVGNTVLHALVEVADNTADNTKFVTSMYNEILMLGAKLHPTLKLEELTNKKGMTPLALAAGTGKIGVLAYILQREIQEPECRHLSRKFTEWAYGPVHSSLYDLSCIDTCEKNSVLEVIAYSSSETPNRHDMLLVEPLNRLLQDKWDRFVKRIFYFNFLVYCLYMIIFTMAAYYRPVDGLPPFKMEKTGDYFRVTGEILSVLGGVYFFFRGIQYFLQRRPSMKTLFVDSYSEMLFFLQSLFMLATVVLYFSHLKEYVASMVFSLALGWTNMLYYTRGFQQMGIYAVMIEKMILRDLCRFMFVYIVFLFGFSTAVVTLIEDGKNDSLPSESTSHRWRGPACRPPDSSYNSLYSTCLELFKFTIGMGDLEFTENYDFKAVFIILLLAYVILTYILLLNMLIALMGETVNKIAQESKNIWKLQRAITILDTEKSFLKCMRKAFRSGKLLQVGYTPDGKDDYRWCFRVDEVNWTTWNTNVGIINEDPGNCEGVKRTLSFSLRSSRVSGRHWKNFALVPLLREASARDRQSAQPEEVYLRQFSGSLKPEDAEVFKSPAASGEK

[7] = system: mice; assay: SR141716A pre-treatment before compounds in spontaneous activity and tail-flick tests in mice; type: in vivo, mouse; details: for effect of SR141716A pre-treatment on the compound's effects in the tetrad tests: SR141716A 3 mg/kg i.v., 10 min pre-treatment; for Spontaneous Activity (Beam Interuptions), SR14176a + comp / Tail-Flick Latency (% MPE), SR14176a + comp: SR14176A 3 mg/kg i.v. 10 min before
Protocol: as §2
Data are means ±S.E. of n≧six animals.

| Structure (SMILES) | IC50 [1] [nM] | IC50 [2] [nM] | Emax [3] [%] | Ki ([4]; read-out: CB1 affinity Ki) [nM] | Average ED50 [5] [milligrams per kilogram] | R.I. ED50 [5] | Rectal temp. ED50 [5] | Spontan. activity ED50 [5] | Tail Flick ED50 [5] | EC50 [6] [nM] | Emax [6] [%] | further results |
| --- | --- | --- | --- | --- | --- | --- | --- | --- | --- | --- | --- | --- |
| CCCCC/C=C\C/C=C\C/C=C\C/C=C\CCCC(=O)NCc1cccc(OC)c1 [Compound O-1986] | 18200 ± 2800 | 27300 ± 3500 | 0 | 484 ± 17 | 5.80 | 6.13 (4.79-7.83) milligrams per kilogram | 6.15 (3.22-11.73) milligrams per kilogram | 4.74 (3.17-7.09) milligrams per kilogram | 6.15 (4.63-8.16) milligrams per kilogram | 63 ± 10.1 | 68 | fold less potent than arvanil at hVR1 [6]: more than 100 fold |
| CCCCC/C=C\C/C=C\C/C=C\C/C=C\CCCNC(=O)NCc1ccc(O)c(OC)c1 [Compound O-1987] | 2000 ± 400 | 19300 ± 3300 | 0 | 1720 ± 200 | 0.09 | 0.09 (0.06-0.12) milligrams per kilogram | 0.08 (0.03-0.20) milligrams per kilogram | 0.06 (0.04-0.08) milligrams per kilogram | 0.12 (0.08-0.17) milligrams per kilogram | 0.7 ± 0.2 | 80.6 | – |
| CCCCC/C=C\C/C=C\C/C=C\C/C=C\CCCC(=O)N(C)Cc1ccc(O)c(OC)c1 [Compound O-1988] | > 50000 | 10000 ± 2100 | 0 | 2830 ± 175 | 5.98 | 4.08 (2.99-5.56) milligrams per kilogram | 8.74 (5.61-13.60) milligrams per kilogram | 3.11 (1.54-6.29) milligrams per kilogram | 7.98 (5.17-12.34) milligrams per kilogram | 25 ± 3.9 | 69.1 | effect of SR141716A pre-treatment on the compound's effects in the tetrad tests [7]: not affected; Spontaneous Activity (Beam Interuptions), vehicle + compound ([7]; dose 3 mg/kg i.v.): 766 ± 157 Beam Interuptions; Tail-Flick Latency (% MPE), vehicle + compound ([7]; dose 3 mg/kg i.v.): 54 ± 9 % MPE; Spontaneous Activity (Beam Interuptions), SR14176a + comp ([7]; dose 3 mg/kg i.v.): 689 ± 68 Beam Interuptions; Tail-Flick Latency (% MPE), SR14176a + comp ([7]; dose 3 mg/kg i.v.): 67 ± 15 % MPE; Spontaneous Activity (Beam Interuptions), vehicle + compound ([7]; dose 10 mg/kg i.v.): 179 ± 34 Beam Interuptions; Tail-Flick Latency (% MPE), vehicle + compound ([7]; dose 10 mg/kg i.v.): 100 % MPE; Spontaneous Activity (Beam Interuptions), SR14176a + comp ([7]; dose 10 mg/kg i.v.): 117 ± 17 Beam Interuptions; Tail-Flick Latency (% MPE), SR14176a + comp ([7]; dose 10 mg/kg i.v.): 100 % MPE |
| CCCCC/C=C\C/C=C\C/C=C\C/C=C\CCCC(=O)NCc1ccc(O)c(Cl)c1 [Compound O-2094] | 4500 ± 700 | 19000 ± 2100 | 15 | 275 ± 16 | 1.68 | 1.93 (1.56-2.39) milligrams per kilogram | 3.77 (1.21-11.76) milligrams per kilogram | 0.52 (0.38-0.71) milligrams per kilogram | 0.49 (0.35-0.67) milligrams per kilogram | 10 | 63.5 | effect of SR141716A pre-treatment on the compound's effects in the tetrad tests [7]: not affected; effect of SR141716A pre-treatment on the compound's effects in the tetrad tests ([7]; listed as 0-2094): No inhibitory effect; Spontaneous Activity (Beam Interuptions), vehicle + compound ([7]; dose 1 mg/kg i.v.): 83 ± 17 Beam Interuptions; Tail-Flick Latency (% MPE), vehicle + compound ([7]; dose 1 mg/kg i.v.): 94 ± 5 % MPE; Spontaneous Activity (Beam Interuptions), SR14176a + comp ([7]; dose 1 mg/kg i.v.): 116 ± 21 Beam Interuptions; Tail-Flick Latency (% MPE), SR14176a + comp ([7]; dose 1 mg/kg i.v.): 100 % MPE; Spontaneous Activity (Beam Interuptions), vehicle + compound ([7]; dose 3 mg/kg i.v.): 118 ± 16 Beam Interuptions; Tail-Flick Latency (% MPE), vehicle + compound ([7]; dose 3 mg/kg i.v.): 100 % MPE; Spontaneous Activity (Beam Interuptions), SR14176a + comp ([7]; dose 3 mg/kg i.v.): 52 ± 19 Beam Interuptions; Tail-Flick Latency (% MPE), SR14176a + comp ([7]; dose 3 mg/kg i.v.): 96 ± 4 % MPE; EC50 [3]: 131 nM; activity in the GTPγS binding assay [3]: low efficacy partial agonist; Ki ([4]; read-out: CB1 affinity Ki, listed as 0-2094): 274 ± 19 nM; ED50 ([5]; Mus musculus, iv, read-out: ED50 values, range over the four parameters of the mouse 'tetrad'): 0.49 to 3.77 mg/kg |
| CCCCC/C=C\C/C=C\C/C=C\C/C=C\CCCNC(=S)NCc1ccc(O)c(OC)c1 [Compound O-2095] | > 50000 | 7500 ± 1800 | 0 | 8630 ± 130 | 0.05 | 0.08 (0.05-0.12) milligrams per kilogram | 0.03 (0.02-0.07) milligrams per kilogram | 0.02 (0.02-0.03) milligrams per kilogram | 0.08 (0.06-0.10) milligrams per kilogram | 0.4 ± 0.1 | 72.1 | – |
| CCCCC/C=C\C/C=C\C/C=C\C/C=C\CCCNC(=S)NCc1ccc(O)c(Cl)c1 [Compound O-2109] | > 50000 | 3800 ± 700 | 0 | 1800 ± 204 | 0.15 | 0.15 (0.10-0.23) milligrams per kilogram | 0.33 (0.02-5.06) milligrams per kilogram | 0.02 (0.02-0.03) milligrams per kilogram | 0.09 (0.06-0.12) milligrams per kilogram | 4 ± 1.1 | – | fold less potent than O-2095 at VR1 [6]: 10 fold |
| CCCCC/C=C\C/C=C\C/C=C\C/C=C\CCCC(=O)NCc1ccc(OC(=O)CCCN2CCOCC2)c(OC)c1 [Compound O-2142] | 9100 ± 1700 | 30000 ± 4300 | 0 | 483 ± 63 | 0.17 | 0.17 (0.13-0.22) milligrams per kilogram | 0.11 (0.07-0.17) milligrams per kilogram | 0.20 (0.16-0.24) milligrams per kilogram | 0.19 (0.15-0.25) milligrams per kilogram | 0.6 ± 0.2 | 86.6 | activity in the GTPγS binding assay [3]: inactive |
